Data: PubChem BioAssay AID2060611 (Molecular Pharmacology Branch, DTP, NCI, 2025)

Tested on: 628569-122-R-J1-PDC complex spheroid viability
Experiment: Anticancer human tumor 628569-122-R-J1-PDC patient-derived head and neck squamous carcinoma cell line growth inhibition [CLK]
Settings: for IC50: curve of first compound; for viability, T/C: stronger effect = lower value; active = viability on the fitted dose curve at most 10% of control; inactive = the rest
Procedure, shortened: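 Multi-cell-type spheroids combined patient-derived tumor cells with HUVEC endothelial cells and human mesenchymal stem cells. Paired agents were dosed in half-log steps down from about clinical Cmax, or from 10 microM where Cmax was unknown.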

[1] = second compound 0.0316 µM, first compound 0.0316 µM
[2] = second compound 0.0316 µM, first compound 0.1 µM
[3] = second compound 0.0316 µM, first compound 0.316 µM
[4] = second compound 0.0316 µM, first compound 1 µM
[5] = second compound 0.1 µM, first compound 0.0316 µM
[6] = second compound 0.1 µM, first compound 0.1 µM
[7] = second compound 0.1 µM, first compound 0.316 µM
[8] = second compound 0.1 µM, first compound 1 µM
[9] = second compound 0.316 µM, first compound 0.0316 µM
[10] = second compound 0.316 µM, first compound 0.1 µM
[11] = second compound 0.316 µM, first compound 0.316 µM
[12] = second compound 0.316 µM, first compound 1 µM
[13] = second compound 1 µM, first compound 0.0316 µM
[14] = second compound 1 µM, first compound 0.1 µM
[15] = second compound 1 µM, first compound 0.316 µM
[16] = second compound 1 µM, first compound 1 µM
[17] = second compound 3.16 µM, first compound 0.0316 µM
[18] = second compound 3.16 µM, first compound 0.1 µM
[19] = second compound 3.16 µM, first compound 0.316 µM
[20] = second compound 3.16 µM, first compound 1 µM
[21] = second compound 10 µM, first compound 0.0316 µM
[22] = second compound 10 µM, first compound 0.1 µM
[23] = second compound 10 µM, first compound 0.316 µM
[24] = second compound 10 µM, first compound 1 µM
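Note: spheroids exposed to agents for seven days before readout.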
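Throughout, for viability, T/C: 100% = DMSO vehicle control viability.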

CCc1c2c(nc3ccc(O)cc13)-c1cc3c(c(=O)n1C2)COC(=O)[C@]3(O)CC + CNC(=O)c1ccc(Nc2nc(OC3CCCC3)c3c(-c4ccc5nc(C)oc5c4)c[nH]c3n2)c(OC)c1
0.0615 µM: IC50 (second compound 0.1 µM)
inactive: viability, T/C (second compound 0.0316 µM, first compound 0.00316 µM) 62.2% | viability, T/C (second compound 0.0316 µM, first compound 0.01 µM) 47.5% | viability, T/C [1] 53.5% | viability, T/C [2] 46.6% | viability, T/C [3] 51.5% | viability, T/C [4] 11.4% | viability, T/C (second compound 0.1 µM, first compound 0.00316 µM) 56.6% | viability, T/C (second compound 0.1 µM, first compound 0.01 µM) 51.1% | viability, T/C [5] 55.2% | viability, T/C [6] 43.1% | viability, T/C [7] 42% | viability, T/C [8] 13.9% | viability, T/C (second compound 0.316 µM, first compound 0.00316 µM) 54.2% | viability, T/C (second compound 0.316 µM, first compound 0.01 µM) 49.4% | viability, T/C [9] 42.8% | viability, T/C [10] 44.4% | viability, T/C [11] 31.9% | viability, T/C [12] 21.8% | viability, T/C (second compound 1 µM, first compound 0.00316 µM) 38.8% | viability, T/C (second compound 1 µM, first compound 0.01 µM) 42.2% | viability, T/C [13] 40.2% | viability, T/C [14] 34.2% | viability, T/C [15] 26.1% | viability, T/C [16] 11.1% | viability, T/C (second compound 3.16 µM, first compound 0.00316 µM) 39.8% | viability, T/C (second compound 3.16 µM, first compound 0.01 µM) 40% | viability, T/C [17] 36.4% | viability, T/C [18] 39.2% | viability, T/C [19] 29.7% | viability, T/C [20] 7.37% | viability, T/C (second compound 10 µM, first compound 0.00316 µM) 38.7% | viability, T/C (second compound 10 µM, first compound 0.01 µM) 41.8% | viability, T/C [21] 37.1% | viability, T/C [22] 33.5% | viability, T/C [23] 24.5%
active: viability, T/C [24] 6.76%
< 0.00316 µM: IC50 (second compound 1 µM) | IC50 (second compound 3.16 µM) | IC50 (second compound 10 µM)
0.0107 µM: IC50 (second compound 0.316 µM)
0.326 µM: IC50 (second compound 0.0316 µM)

C=C(F)C(=O)N1CCN(c2nc(OCC3CCCN3C)nc3c2CCN(c2cccc4cccc(Cl)c24)C3)CC1CC#N (centres undefined) + CN1CCN(c2cc(C(=O)Nc3cc4cc(-c5cnn(C)c5)ccc4cn3)ccn2)CC1
< 0.0316 µM: IC50 (second compound 0.316 µM) | IC50 (second compound 1 µM) | IC50 (second compound 3.16 µM) | IC50 (second compound 10 µM)
4.56 µM: IC50 (second compound 0.1 µM)
7.26 µM: IC50 (second compound 0.0316 µM)
inactive: viability, T/C [1] 102% | viability, T/C [2] 80.5% | viability, T/C [3] 98.3% | viability, T/C [4] 108% | viability, T/C (second compound 0.0316 µM, first compound 3.16 µM) 113% | viability, T/C (second compound 0.0316 µM, first compound 10 µM) 30.6% | viability, T/C [5] 64.3% | viability, T/C [6] 67.4% | viability, T/C [7] 64.1% | viability, T/C [8] 62.7% | viability, T/C (second compound 0.1 µM, first compound 3.16 µM) 87.9% | viability, T/C [9] 35% | viability, T/C [10] 37.6% | viability, T/C [11] 34.7% | viability, T/C [12] 32.2% | viability, T/C (second compound 0.316 µM, first compound 3.16 µM) 39.1% | viability, T/C (second compound 0.316 µM, first compound 10 µM) 2.52%
active: viability, T/C (second compound 0.1 µM, first compound 10 µM) 8.57% | viability, T/C [13] 7.05% | viability, T/C [14] 4.72% | viability, T/C [15] 5.61% | viability, T/C [16] 5% | viability, T/C (second compound 1 µM, first compound 3.16 µM) 5.11% | viability, T/C (second compound 1 µM, first compound 10 µM) 1.51% | viability, T/C [17] 6.63% | viability, T/C [18] 4.67% | viability, T/C [19] 7.01% | viability, T/C [20] 6.75% | viability, T/C (second compound 3.16 µM, first compound 3.16 µM) 3.34% | viability, T/C (second compound 3.16 µM, first compound 10 µM) 0.55% | viability, T/C [21] 1.82% | viability, T/C [22] 2.41% | viability, T/C [23] 3.57% | viability, T/C [24] 3.3% | viability, T/C (second compound 10 µM, first compound 3.16 µM) 0.98% | viability, T/C (second compound 10 µM, first compound 10 µM) 1.32%
